Results: the supplement of paper PMC10307832

Tests used:
Assay in all cases: relative viability (nuclei count vs DMSO), 5 days (fraction); higher = more cells survive
SGI-1776 + Decitabine = compound: CN1CCC(CNc2ccc3ncc(-c4cccc(OC(F)(F)F)c4)n3n2)CC1 [SGI-1776] + Nc1ncn([C@H]2C[C@H](O)[C@@H](CO)O2)c(=O)n1 [Decitabine] (partner 2 µM)
Procedure, shortened: (§1)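 Relative viability equals treated-well nuclei counts divided by vehicle-well nuclei counts. Counts came from 4× images of lung cancer cell lines grown in 1536-well plates for 5 days after pin-tool dosing on the day after seeding. Dosing used one drug alone or a fixed anchor-drug dose plus five library-drug doses (not always all listed) in √10 steps, and values are medians of duplicate plates.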

[1] = compound: C1COCCN1C2=NC(=NC3=C2OC4=C3C=CC=N4)C5=CC(=CC=C5)NC(=O)C6=CN=C(C=C6)N + COc1cc2c(Oc3ccc(NC(=O)C4(C(=O)Nc5ccc(F)cc5)CC4)cc3F)ccnc2cc1OCCCN1CCOCC1 [Foretinib] (partner 0.25 µM)
Procedure, shortened: as §1

SGI-1776 + Tozasertib = compound: CN1CCC(CNc2ccc3ncc(-c4cccc(OC(F)(F)F)c4)n3n2)CC1 [SGI-1776] + Cc1cc(Nc2cc(N3CCN(C)CC3)nc(Sc3ccc(NC(=O)C4CC4)cc3)n2)n[nH]1 [Tozasertib] (partner 0.1 µM)
Procedure, shortened: as §1

[2] = compound: C1COCCN1C2=NC(=NC3=C2OC4=C3C=CC=N4)C5=CC(=CC=C5)NC(=O)C6=CN=C(C=C6)N + CS(=O)(=O)CCNCc1ccc(-c2ccc3ncnc(Nc4ccc(OCc5cccc(F)c5)c(Cl)c4)c3c2)o1 [Lapatinib] (partner 2 µM)
Procedure, shortened: as §1

| Cell Line | relative viability (SGI-1776 + Decitabine; first compound 0.08 µM) | relative viability (SGI-1776 + Decitabine; first compound 0.8 µM) | relative viability (SGI-1776 + Decitabine; first compound 2.53 µM) | relative viability (SGI-1776 + Decitabine; first compound 8 µM) | relative viability ([1]; first compound 0.02 µM) | relative viability ([1]; first compound 0.06325 µM) | relative viability ([1]; first compound 0.2 µM) | relative viability ([1]; first compound 0.6325 µM) | relative viability ([1]; first compound 2 µM) | relative viability (SGI-1776 + Tozasertib; first compound 0.08 µM) | relative viability (SGI-1776 + Tozasertib; first compound 0.8 µM) | relative viability (SGI-1776 + Tozasertib; first compound 2.53 µM) | relative viability (SGI-1776 + Tozasertib; first compound 8 µM) | relative viability ([2]; first compound 0.02 µM) | relative viability ([2]; first compound 0.06325 µM) | relative viability ([2]; first compound 0.2 µM) | relative viability ([2]; first compound 0.6325 µM) | relative viability ([2]; first compound 2 µM) |
| --- | --- | --- | --- | --- | --- | --- | --- | --- | --- | --- | --- | --- | --- | --- | --- | --- | --- | --- |
| HCC-366 | 0.335 | 0.382 | 0.373 | 0.316 | 0.946 | 0.931 | 0.913 | 0.892 | 0.714 | 0.115 | 0.0741 | 0.0957 | 0.0418 | 1.35 | 1.04 | 0.95 | 1.03 | 0.453 |
| HCC-827 | 0.32 | 0.391 | 0.411 | 0.295 | 1.01 | 1.06 | 0.99 | 1.08 | 0.97 | 0.448 | 0.369 | 0.422 | 0.359 | 0.172 | 0.214 | 0.254 | 0.186 | 0.21 |
| HOP-62 | 0.214 | 0.221 | 0.214 | 0.242 | 1.12 | 1.2 | 1.12 | 1.02 | 0.568 | 0.397 | 0.323 | 0.241 | 0.251 | 0.945 | 1.42 | 1.06 | 0.925 | 0.531 |
| IA-LM | – | – | – | – | 0.999 | 1.38 | 0.867 | 0.922 | 0.326 | – | – | – | – | 0.848 | 0.67 | 0.621 | 0.588 | 0.276 |
| LC-2-ad | 0.806 | 0.811 | 0.737 | 0.779 | 0.858 | 0.984 | 0.977 | 1.06 | 0.9 | 0.451 | 0.309 | 0.336 | 0.261 | 0.948 | 0.939 | 0.968 | 1.03 | 0.537 |
| LCLC-97TM1 | 0.234 | 0.206 | 0.26 | 0.236 | 0.974 | 0.964 | 0.931 | 1.04 | 0.825 | 0.211 | 0.188 | 0.163 | 0.185 | – | 1.25 | 1.15 | 0.892 | 0.761 |
| LCLC-103H | 0.738 | 0.656 | 0.762 | 0.69 | 0.872 | 0.777 | 0.789 | 0.643 | 0.474 | 0.495 | 0.506 | 0.424 | 0.211 | – | – | – | – | – |
| LK-2 | 0.323 | 0.356 | 0.3 | 0.286 | 1.34 | 1.37 | 1.35 | 0.797 | 0.598 | 0.181 | 0.206 | 0.16 | 0.182 | 1.14 | 1.11 | 0.828 | 0.776 | 0.563 |
| LOU-NH91 | 0.853 | 0.811 | 0.799 | 0.705 | 0.946 | 0.952 | 0.901 | 0.925 | 0.845 | 0.711 | 0.594 | 0.459 | 0.341 | 0.764 | 0.826 | 0.725 | 0.769 | 0.715 |
| LU99A | 0.859 | 0.872 | 0.94 | 0.876 | 0.824 | 0.821 | 0.75 | 0.582 | 0.497 | 0.252 | 0.239 | 0.229 | 0.25 | 1.1 | 1.04 | 0.92 | 0.64 | 0.35 |
| LXF-289 | 0.384 | 0.366 | 0.369 | 0.326 | 0.994 | 1 | 0.985 | 0.952 | 0.747 | 0.171 | 0.212 | 0.184 | 0.0856 | 0.939 | 0.97 | 0.99 | 0.9 | 0.696 |
| NCI-H23 | 0.326 | 0.323 | 0.35 | 0.305 | 0.85 | – | 0.943 | 0.815 | 0.493 | 0.367 | 0.295 | 0.282 | 0.205 | 1.43 | 1.15 | 1.18 | 0.988 | 0.719 |
| NCI-H441 | 0.26 | 0.26 | 0.236 | 0.22 | 1.13 | 0.918 | 0.786 | 0.84 | 0.493 | 0.604 | 0.437 | 0.216 | 0.297 | – | – | – | – | – |
| NCI-H522 | 0.632 | 0.595 | 0.728 | 0.562 | – | – | – | – | – | 0.654 | 0.557 | 0.502 | 0.523 | – | – | – | – | – |
| NCI-H1299 | – | – | – | – | 1.01 | 1.08 | 1.1 | 1.05 | 0.806 | – | – | – | – | 0.929 | 0.953 | 0.954 | 0.975 | 0.691 |
| NCI-H1563 | – | – | – | – | 0.833 | 0.911 | 0.862 | 0.856 | 0.823 | – | – | – | – | 0.906 | 0.82 | 0.857 | 0.72 | 0.719 |
| NCI-H1623 | – | – | – | – | 0.791 | 0.801 | 0.954 | 0.822 | 0.648 | 0.436 | 0.425 | 0.39 | 0.45 | – | – | – | – | – |
| NCI-H1648 | 0.432 | 0.414 | 0.461 | 0.497 | – | – | – | – | – | 0.58 | 0.503 | 0.451 | 0.284 | – | – | – | – | – |
| NCI-H1703 | – | – | – | – | 0.284 | 0.413 | 0.371 | 0.305 | 0.285 | – | – | – | – | 1.17 | 1.21 | 0.761 | 0.798 | 0.308 |
| NCI-H1792 | 0.651 | 0.508 | 0.658 | 0.527 | – | – | – | – | – | – | – | – | – | 0.882 | 0.904 | 0.874 | 0.925 | 0.376 |
| NCI-H2228 | – | – | – | – | 0.911 | 0.855 | 1 | 0.836 | 0.446 | 0.253 | 0.145 | 0.117 | 0.148 | 1.1 | 1.2 | 0.89 | 1.06 | 0.604 |
| NCI-H2342 | 0.776 | 0.707 | 0.658 | 0.712 | 0.981 | 1.24 | 1.02 | 1.01 | 0.88 | 0.668 | 0.456 | 0.504 | 0.357 | – | – | – | – | – |
| SW 900 | 0.368 | 0.412 | 0.49 | 0.456 | 0.944 | 0.93 | 0.751 | 1.5 | 0.735 | 0.693 | 0.608 | 0.467 | 0.222 | – | – | – | – | – |
